Measured values published in article PMC9927415, “Tyrosine Kinase Inhibitors Display Potent Activity against Cryptosporidium parvum” (Microbiology Spectrum, 2022).

Columns and labels:
Assay in all cases: KINOMEscan competitive binding, whole panel
[1] = target: T1, panel of 203 kinases (Homo sapiens, UniProt P08631); details: 10 µM, n=1; kinase HCK; read-out: Percent inhibition HCK
T1 construct: purchased DiscoverX (KINOMEscan)
In short: (§1)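 T7 phage-fused kinases; compound displaces immobilized ATP-site probe ligand; bead-bound kinase quantified; % inhibition reported.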

[2] = target: T2, panel of 203 kinases (Homo sapiens, UniProt P15056); details: 10 µM, n=1; kinase BRAF; read-out: Percent inhibition BRAF
T2 construct: purchased DiscoverX (KINOMEscan)
In short: as §1

[3] = target: T3, panel of 203 kinases (Homo sapiens, UniProt P16591); details: 10 µM, n=1; kinase FER; read-out: Percent inhibition FER
T3 construct: purchased DiscoverX (KINOMEscan)
T3 sequence (P16591 whole entry): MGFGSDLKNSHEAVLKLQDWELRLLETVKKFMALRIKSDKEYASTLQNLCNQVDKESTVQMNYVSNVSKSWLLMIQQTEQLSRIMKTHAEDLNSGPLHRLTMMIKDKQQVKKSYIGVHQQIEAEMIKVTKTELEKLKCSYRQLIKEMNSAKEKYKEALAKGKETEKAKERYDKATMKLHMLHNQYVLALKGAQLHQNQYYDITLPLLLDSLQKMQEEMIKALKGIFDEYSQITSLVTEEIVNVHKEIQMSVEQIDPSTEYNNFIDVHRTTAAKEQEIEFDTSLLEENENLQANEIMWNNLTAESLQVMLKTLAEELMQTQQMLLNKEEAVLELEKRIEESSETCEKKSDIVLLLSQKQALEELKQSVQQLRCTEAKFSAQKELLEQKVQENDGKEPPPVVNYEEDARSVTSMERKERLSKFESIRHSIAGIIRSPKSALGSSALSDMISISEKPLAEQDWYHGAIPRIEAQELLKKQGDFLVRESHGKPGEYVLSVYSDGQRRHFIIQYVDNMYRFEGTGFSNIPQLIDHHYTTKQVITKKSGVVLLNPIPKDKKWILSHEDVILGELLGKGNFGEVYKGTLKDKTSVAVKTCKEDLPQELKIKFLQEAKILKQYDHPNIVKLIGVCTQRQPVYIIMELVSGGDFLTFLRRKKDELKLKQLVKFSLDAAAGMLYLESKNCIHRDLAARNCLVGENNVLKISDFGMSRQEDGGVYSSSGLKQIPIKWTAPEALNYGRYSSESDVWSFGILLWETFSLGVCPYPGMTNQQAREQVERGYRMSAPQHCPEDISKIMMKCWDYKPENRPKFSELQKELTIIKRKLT
In short: as §1

[4] = target: T4, panel of 203 kinases (Homo sapiens, UniProt P21709); details: 10 µM, n=1; kinase EPHA1; read-out: Percent inhibition EPHA1
T4 construct: purchased DiscoverX (KINOMEscan)
T4 sequence (P21709 26-976): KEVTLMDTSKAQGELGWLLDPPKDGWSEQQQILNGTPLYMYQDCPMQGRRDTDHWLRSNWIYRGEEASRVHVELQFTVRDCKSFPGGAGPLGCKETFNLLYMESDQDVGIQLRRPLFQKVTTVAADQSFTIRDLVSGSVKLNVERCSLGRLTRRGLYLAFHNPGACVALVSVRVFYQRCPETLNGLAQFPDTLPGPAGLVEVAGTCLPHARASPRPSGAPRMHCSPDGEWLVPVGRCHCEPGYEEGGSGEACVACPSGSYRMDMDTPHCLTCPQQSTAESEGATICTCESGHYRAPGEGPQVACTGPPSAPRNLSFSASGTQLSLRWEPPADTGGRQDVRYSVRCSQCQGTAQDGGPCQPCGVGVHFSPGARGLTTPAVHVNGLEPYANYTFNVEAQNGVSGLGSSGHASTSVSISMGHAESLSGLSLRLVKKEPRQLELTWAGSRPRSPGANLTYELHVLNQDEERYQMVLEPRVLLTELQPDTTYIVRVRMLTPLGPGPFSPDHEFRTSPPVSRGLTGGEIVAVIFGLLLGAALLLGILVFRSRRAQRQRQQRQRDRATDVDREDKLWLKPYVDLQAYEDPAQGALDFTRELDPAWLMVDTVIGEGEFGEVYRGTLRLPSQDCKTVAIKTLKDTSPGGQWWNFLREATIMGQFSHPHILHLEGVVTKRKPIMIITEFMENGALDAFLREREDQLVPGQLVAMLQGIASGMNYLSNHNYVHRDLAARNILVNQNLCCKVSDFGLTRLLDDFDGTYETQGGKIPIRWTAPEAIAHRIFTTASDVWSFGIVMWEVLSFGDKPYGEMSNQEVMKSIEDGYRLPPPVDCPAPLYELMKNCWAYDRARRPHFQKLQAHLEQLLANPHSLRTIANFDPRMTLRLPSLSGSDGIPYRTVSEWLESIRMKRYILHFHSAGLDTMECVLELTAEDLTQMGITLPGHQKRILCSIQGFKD
In short: as §1

[5] = target: T5, panel of 203 kinases (Homo sapiens, UniProt P42684); details: 10 µM, n=1; kinase ABL2; read-out: Percent inhibition ABL2
T5 construct: purchased DiscoverX (KINOMEscan)
T5 sequence (P42684 whole entry): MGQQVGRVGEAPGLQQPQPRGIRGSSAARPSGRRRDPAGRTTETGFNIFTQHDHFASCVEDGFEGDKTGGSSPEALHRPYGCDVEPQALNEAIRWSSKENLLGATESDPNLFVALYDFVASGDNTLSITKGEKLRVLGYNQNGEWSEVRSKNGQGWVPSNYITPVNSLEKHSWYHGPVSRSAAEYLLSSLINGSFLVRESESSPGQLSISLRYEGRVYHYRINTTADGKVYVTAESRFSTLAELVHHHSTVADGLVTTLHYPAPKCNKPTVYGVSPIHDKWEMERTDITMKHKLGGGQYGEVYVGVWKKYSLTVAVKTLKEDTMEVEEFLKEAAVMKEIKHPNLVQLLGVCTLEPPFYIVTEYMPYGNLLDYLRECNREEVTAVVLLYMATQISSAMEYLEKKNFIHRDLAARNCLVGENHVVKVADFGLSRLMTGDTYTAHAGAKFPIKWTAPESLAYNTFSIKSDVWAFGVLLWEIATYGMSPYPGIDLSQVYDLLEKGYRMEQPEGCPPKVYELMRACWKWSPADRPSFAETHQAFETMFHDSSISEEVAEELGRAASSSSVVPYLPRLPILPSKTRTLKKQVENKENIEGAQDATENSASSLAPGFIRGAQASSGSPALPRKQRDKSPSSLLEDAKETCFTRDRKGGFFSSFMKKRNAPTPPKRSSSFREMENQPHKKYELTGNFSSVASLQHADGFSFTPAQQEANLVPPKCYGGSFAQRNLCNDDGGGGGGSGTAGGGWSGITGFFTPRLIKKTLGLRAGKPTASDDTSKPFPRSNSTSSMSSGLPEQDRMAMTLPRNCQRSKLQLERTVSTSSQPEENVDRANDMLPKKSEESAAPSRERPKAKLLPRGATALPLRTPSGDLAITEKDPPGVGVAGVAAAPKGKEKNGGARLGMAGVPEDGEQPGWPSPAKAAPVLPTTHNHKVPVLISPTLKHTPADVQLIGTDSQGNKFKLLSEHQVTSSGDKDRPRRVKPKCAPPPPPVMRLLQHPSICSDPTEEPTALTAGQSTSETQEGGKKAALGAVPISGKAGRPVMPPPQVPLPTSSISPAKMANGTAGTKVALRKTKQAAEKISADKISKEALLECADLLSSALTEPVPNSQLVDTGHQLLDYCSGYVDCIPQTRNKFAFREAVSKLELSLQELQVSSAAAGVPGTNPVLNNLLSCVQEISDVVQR
In short: as §1

[6] = target: T6, panel of 203 kinases (Homo sapiens, UniProt P42685); details: 10 µM, n=1; kinase FRK; read-out: Percent inhibition FRK
T6 construct: purchased DiscoverX (KINOMEscan)
T6 sequence (P42685 whole entry): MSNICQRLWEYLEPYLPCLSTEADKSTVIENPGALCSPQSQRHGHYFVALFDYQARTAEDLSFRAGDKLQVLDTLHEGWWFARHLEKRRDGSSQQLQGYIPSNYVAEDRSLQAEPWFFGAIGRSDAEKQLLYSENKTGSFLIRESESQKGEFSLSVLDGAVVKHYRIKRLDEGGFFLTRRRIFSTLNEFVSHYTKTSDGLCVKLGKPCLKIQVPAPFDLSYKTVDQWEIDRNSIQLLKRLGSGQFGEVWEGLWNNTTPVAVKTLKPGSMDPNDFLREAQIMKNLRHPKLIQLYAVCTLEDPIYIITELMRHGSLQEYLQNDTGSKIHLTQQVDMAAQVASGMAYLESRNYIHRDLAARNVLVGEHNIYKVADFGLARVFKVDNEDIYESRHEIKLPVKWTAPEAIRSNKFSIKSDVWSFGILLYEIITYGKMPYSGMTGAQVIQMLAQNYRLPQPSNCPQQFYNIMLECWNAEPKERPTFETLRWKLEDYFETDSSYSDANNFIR
In short: as §1

[7] = target: T7, panel of 203 kinases (Homo sapiens, UniProt P49840); details: 10 µM, n=1; kinase GSK3A; read-out: Percent inhibition GSK3A
T7 construct: purchased DiscoverX (KINOMEscan)
In short: as §1

[8] = target: T8, panel of 203 kinases (Homo sapiens, UniProt P53779); details: 10 µM, n=1; kinase JNK3; read-out: Percent inhibition JNK3
T8 construct: purchased DiscoverX (KINOMEscan)
T8 sequence (P53779 whole entry): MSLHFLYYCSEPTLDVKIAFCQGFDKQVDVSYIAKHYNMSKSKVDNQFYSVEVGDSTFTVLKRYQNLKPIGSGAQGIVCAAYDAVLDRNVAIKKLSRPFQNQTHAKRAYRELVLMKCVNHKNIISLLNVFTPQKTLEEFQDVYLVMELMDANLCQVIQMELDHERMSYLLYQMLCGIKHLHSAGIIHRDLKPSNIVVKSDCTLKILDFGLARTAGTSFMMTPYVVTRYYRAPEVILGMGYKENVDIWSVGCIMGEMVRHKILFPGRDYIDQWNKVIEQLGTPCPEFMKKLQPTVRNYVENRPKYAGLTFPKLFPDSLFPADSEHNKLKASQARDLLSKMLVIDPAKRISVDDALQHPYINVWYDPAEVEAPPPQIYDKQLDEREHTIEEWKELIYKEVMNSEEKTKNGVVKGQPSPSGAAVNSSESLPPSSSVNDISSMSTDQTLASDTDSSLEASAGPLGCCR
In short: as §1

[9] = target: T9, panel of 203 kinases (Homo sapiens, UniProt Q13131); details: 10 µM, n=1; kinase AMPK-alpha1; read-out: Percent inhibition AMPK-alpha1
T9 construct: purchased DiscoverX (KINOMEscan)
T9 sequence (Q13131 whole entry): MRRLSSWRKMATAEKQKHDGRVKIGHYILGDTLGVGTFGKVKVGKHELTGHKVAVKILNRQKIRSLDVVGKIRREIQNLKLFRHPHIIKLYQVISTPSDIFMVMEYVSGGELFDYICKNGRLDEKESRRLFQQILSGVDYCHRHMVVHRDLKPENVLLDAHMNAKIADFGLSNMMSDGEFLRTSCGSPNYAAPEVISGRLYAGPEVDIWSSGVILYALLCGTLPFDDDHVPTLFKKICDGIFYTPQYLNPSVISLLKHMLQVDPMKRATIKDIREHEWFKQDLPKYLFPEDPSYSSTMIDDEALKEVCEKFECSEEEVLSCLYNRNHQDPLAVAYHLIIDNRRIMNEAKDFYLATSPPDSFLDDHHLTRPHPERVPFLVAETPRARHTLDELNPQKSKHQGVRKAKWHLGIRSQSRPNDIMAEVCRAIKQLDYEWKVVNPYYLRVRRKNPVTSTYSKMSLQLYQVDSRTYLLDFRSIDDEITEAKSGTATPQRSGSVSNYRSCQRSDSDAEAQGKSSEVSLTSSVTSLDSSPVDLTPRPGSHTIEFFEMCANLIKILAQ
In short: as §1

[10] = target: T10, panel of 203 kinases (Homo sapiens, UniProt Q16584); details: 10 µM, n=1; kinase MLK3; read-out: Percent inhibition MLK3
T10 construct: purchased DiscoverX (KINOMEscan)
In short: as §1

[11] = target: T11, panel of 203 kinases (Homo sapiens, UniProt Q8IU85); details: 10 µM, n=1; kinase CAMK1D; read-out: Percent inhibition CAMK1D
T11 construct: purchased DiscoverX (KINOMEscan)
T11 sequence (Q8IU85 whole entry): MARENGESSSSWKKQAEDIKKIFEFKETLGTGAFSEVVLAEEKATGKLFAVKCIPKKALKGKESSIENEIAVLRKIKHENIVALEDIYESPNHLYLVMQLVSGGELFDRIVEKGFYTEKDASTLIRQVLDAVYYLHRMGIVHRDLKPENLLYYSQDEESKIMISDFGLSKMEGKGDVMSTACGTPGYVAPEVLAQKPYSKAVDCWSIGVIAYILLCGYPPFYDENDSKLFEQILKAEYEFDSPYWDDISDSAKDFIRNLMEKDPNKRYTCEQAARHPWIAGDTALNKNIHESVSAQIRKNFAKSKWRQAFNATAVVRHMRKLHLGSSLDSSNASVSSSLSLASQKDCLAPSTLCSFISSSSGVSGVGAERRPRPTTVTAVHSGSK
In short: as §1

[12] = target: T12, panel of 203 kinases (Homo sapiens, UniProt Q8TDX7); details: 10 µM, n=1; kinase NEK7; read-out: Percent inhibition NEK7
T12 construct: purchased DiscoverX (KINOMEscan)
In short: as §1

[13] = target: T13, panel of 203 kinases (Homo sapiens, UniProt Q96RR4); details: 10 µM, n=1; kinase CAMKK2; read-out: Percent inhibition CAMKK2
T13 construct: purchased DiscoverX (KINOMEscan)
T13 sequence (Q96RR4 whole entry): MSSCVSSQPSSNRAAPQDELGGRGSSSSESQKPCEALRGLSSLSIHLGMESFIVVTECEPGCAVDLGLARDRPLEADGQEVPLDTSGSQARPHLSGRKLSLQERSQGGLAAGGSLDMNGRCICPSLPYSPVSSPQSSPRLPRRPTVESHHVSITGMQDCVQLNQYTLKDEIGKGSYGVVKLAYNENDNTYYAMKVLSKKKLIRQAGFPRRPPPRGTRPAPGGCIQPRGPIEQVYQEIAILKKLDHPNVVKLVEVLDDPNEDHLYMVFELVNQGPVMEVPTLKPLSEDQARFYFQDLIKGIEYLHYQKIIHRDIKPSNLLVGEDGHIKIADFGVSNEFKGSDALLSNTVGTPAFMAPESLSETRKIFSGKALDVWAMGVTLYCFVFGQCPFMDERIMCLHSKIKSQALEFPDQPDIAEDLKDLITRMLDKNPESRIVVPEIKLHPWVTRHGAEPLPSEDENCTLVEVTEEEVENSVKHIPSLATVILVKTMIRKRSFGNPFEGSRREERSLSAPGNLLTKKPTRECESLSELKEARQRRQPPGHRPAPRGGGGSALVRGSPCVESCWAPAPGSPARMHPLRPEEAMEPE
In short: as §1

[14] = target: T14, panel of 203 kinases (Homo sapiens, UniProt Q9H1R3); details: 10 µM, n=1; kinase MYLK2; read-out: Percent inhibition MYLK2
T14 construct: purchased DiscoverX (KINOMEscan)
In short: as §1

[15] = target: T15, panel of 203 kinases (Homo sapiens, UniProt Q9UM73); details: 10 µM, n=1; kinase ALK; read-out: Percent inhibition ALK
T15 construct: purchased DiscoverX (KINOMEscan)
In short: as §1

[16] = target: T16, panel of 203 kinases (Homo sapiens, UniProt Q9UQM7); details: 10 µM, n=1; kinase CAMK2A; read-out: Percent inhibition CAMK2A
T16 construct: purchased DiscoverX (KINOMEscan)
In short: as §1

T1 sequence (P08631 whole entry): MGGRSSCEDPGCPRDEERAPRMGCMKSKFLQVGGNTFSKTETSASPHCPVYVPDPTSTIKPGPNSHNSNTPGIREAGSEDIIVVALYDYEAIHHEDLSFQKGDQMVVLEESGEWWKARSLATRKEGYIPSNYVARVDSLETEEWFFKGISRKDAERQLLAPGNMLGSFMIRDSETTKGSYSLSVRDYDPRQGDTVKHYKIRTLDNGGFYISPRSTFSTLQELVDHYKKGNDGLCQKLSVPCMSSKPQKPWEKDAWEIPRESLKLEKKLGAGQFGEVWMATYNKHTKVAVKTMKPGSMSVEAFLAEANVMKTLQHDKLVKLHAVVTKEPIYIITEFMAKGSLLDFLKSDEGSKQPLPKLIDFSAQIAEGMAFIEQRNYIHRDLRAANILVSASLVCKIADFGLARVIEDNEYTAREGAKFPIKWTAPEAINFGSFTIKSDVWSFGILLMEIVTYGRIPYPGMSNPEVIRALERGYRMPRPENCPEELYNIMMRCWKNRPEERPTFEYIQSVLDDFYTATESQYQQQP

SMILES: CN1CCN(c2ccc(Nc3nccc(-c4cnn5ncccc45)n3)cc2C#N)CC1 [Compound 1]
- inhibition at 10 µM [1]: 0%
- inhibition at 10 µM [2]: 0%
- inhibition at 10 µM [3]: 0%
- inhibition at 10 µM [4]: 94.3%
- inhibition at 10 µM [5]: 95%
- inhibition at 10 µM [6]: 91.8%
- inhibition at 10 µM [7]: 100%
- inhibition at 10 µM [8]: 100%
- inhibition at 10 µM [9]: 75.7%
- inhibition at 10 µM [10]: 0%
- inhibition at 10 µM [11]: 98.3%
- inhibition at 10 µM [12]: 100%
- inhibition at 10 µM [13]: 98%
- inhibition at 10 µM [14]: 96.8%
- inhibition at 10 µM [15]: 99.1%
- inhibition at 10 µM [16]: 98.7%

SMILES: COc1ccc(Nc2nccc(-c3cnn4ncccc34)n2)cc1 [Compound 2]
- inhibition at 10 µM [1]: 0%
- inhibition at 10 µM [2]: 99.6%
- inhibition at 10 µM [3]: 74.7%
- inhibition at 10 µM [4]: 92.5%
- inhibition at 10 µM [5]: 92.5%
- inhibition at 10 µM [6]: 0%
- inhibition at 10 µM [7]: 100%
- inhibition at 10 µM [8]: 100%
- inhibition at 10 µM [9]: 0%
- inhibition at 10 µM [10]: 75.5%
- inhibition at 10 µM [11]: 0%
- inhibition at 10 µM [12]: 100%
- inhibition at 10 µM [13]: 96.3%
- inhibition at 10 µM [14]: 80.5%
- inhibition at 10 µM [15]: 94.8%
- inhibition at 10 µM [16]: 82.5%

SMILES: Cc1ccc(O)cc1Nc1ccnc(Nc2cccc(C(N)=O)c2)n1 [Compound 3]
- inhibition at 10 µM [1]: 99.8%
- inhibition at 10 µM [2]: 0%
- inhibition at 10 µM [3]: 95%
- inhibition at 10 µM [4]: 100%
- inhibition at 10 µM [5]: 100%
- inhibition at 10 µM [6]: 99.6%
- inhibition at 10 µM [7]: 69.7%
- inhibition at 10 µM [8]: 94.2%
- inhibition at 10 µM [9]: 0%
- inhibition at 10 µM [10]: 69.4%
- inhibition at 10 µM [11]: 0%
- inhibition at 10 µM [12]: 0%
- inhibition at 10 µM [13]: 0%
- inhibition at 10 µM [14]: 83.2%
- inhibition at 10 µM [15]: 0%
- inhibition at 10 µM [16]: 0%

SMILES: Cc1ccc(O)cc1N(C)c1ccnc(Nc2cccc(S(N)(=O)=O)c2)n1 [Compound 4]
- inhibition at 10 µM [1]: 99.8%
- inhibition at 10 µM [2]: 0%
- inhibition at 10 µM [3]: 99.6%
- inhibition at 10 µM [4]: 100%
- inhibition at 10 µM [5]: 100%
- inhibition at 10 µM [6]: 99.5%
- inhibition at 10 µM [7]: 91.3%
- inhibition at 10 µM [8]: 96.1%
- inhibition at 10 µM [9]: 0%
- inhibition at 10 µM [10]: 81%
- inhibition at 10 µM [11]: 70%
- inhibition at 10 µM [12]: 0%
- inhibition at 10 µM [13]: 0%
- inhibition at 10 µM [14]: 0%
- inhibition at 10 µM [15]: 0%
- inhibition at 10 µM [16]: 0%

SMILES: Fc1cccc(COc2ccc(Nc3ncnc4c3CN(CCN3CCOCC3)CC4)cc2Cl)c1 [Compound 6]
- inhibition at 10 µM [1]: 0%
- inhibition at 10 µM [2]: 0%
- inhibition at 10 µM [3]: 0%
- inhibition at 10 µM [4]: 0%
- inhibition at 10 µM [5]: 0%
- inhibition at 10 µM [6]: 0%
- inhibition at 10 µM [7]: 0%
- inhibition at 10 µM [8]: 0%
- inhibition at 10 µM [9]: 0%
- inhibition at 10 µM [10]: 0%
- inhibition at 10 µM [11]: 0%
- inhibition at 10 µM [12]: 0%
- inhibition at 10 µM [13]: 0%
- inhibition at 10 µM [14]: 0%
- inhibition at 10 µM [15]: 0%
- inhibition at 10 µM [16]: 0%

SMILES: COc1cc(Nc2nccc(-c3sc(N)nc3-c3cccc(NC(=O)c4c(F)cccc4F)c3)n2)cc(OC)c1OC [Compound 7]
- inhibition at 10 µM [1]: 99.7%
- inhibition at 10 µM [2]: 100%
- inhibition at 10 µM [3]: 99%
- inhibition at 10 µM [4]: 100%
- inhibition at 10 µM [5]: 100%
- inhibition at 10 µM [6]: 100%
- inhibition at 10 µM [7]: 0%
- inhibition at 10 µM [8]: 100%
- inhibition at 10 µM [9]: 98.4%
- inhibition at 10 µM [10]: 99.8%
- inhibition at 10 µM [11]: 91.8%
- inhibition at 10 µM [12]: 91.3%
- inhibition at 10 µM [13]: 0%
- inhibition at 10 µM [14]: 97%
- inhibition at 10 µM [15]: 0%
- inhibition at 10 µM [16]: 0%

SMILES: C[C@@H](Oc1cc(-c2cnc3ccccn23)sc1C(N)=O)c1ccccc1Cl [Compound 8]
- inhibition at 10 µM [1]: 0%
- inhibition at 10 µM [2]: 0%
- inhibition at 10 µM [3]: 0%
- inhibition at 10 µM [4]: 0%
- inhibition at 10 µM [5]: 0%
- inhibition at 10 µM [6]: 0%
- inhibition at 10 µM [7]: 0%
- inhibition at 10 µM [8]: 0%
- inhibition at 10 µM [9]: 0%
- inhibition at 10 µM [10]: 0%
- inhibition at 10 µM [11]: 0%
- inhibition at 10 µM [12]: 0%
- inhibition at 10 µM [13]: 81.2%
- inhibition at 10 µM [14]: 66.5%
- inhibition at 10 µM [15]: 0%
- inhibition at 10 µM [16]: 66.5%

SMILES: c1ccc(COc2cccc(-c3ccnc4[nH]ccc34)c2)cc1 [Compound 9]
- inhibition at 10 µM [1]: 0%
- inhibition at 10 µM [2]: 0%
- inhibition at 10 µM [3]: 0%
- inhibition at 10 µM [4]: 0%
- inhibition at 10 µM [5]: 0%
- inhibition at 10 µM [6]: 0%
- inhibition at 10 µM [7]: 0%
- inhibition at 10 µM [8]: 0%
- inhibition at 10 µM [9]: 0%
- inhibition at 10 µM [10]: 0%
- inhibition at 10 µM [11]: 0%
- inhibition at 10 µM [12]: 0%
- inhibition at 10 µM [13]: 0%
- inhibition at 10 µM [14]: 0%
- inhibition at 10 µM [15]: 0%
- inhibition at 10 µM [16]: 0%

SMILES: Clc1ccc(Nc2ncc(-c3ccccc3)s2)cc1 [Compound 10]
- inhibition at 10 µM [1]: 0%
- inhibition at 10 µM [2]: 0%
- inhibition at 10 µM [3]: 0%
- inhibition at 10 µM [4]: 0%
- inhibition at 10 µM [5]: 0%
- inhibition at 10 µM [6]: 0%
- inhibition at 10 µM [7]: 0%
- inhibition at 10 µM [8]: 0%
- inhibition at 10 µM [9]: 0%
- inhibition at 10 µM [10]: 0%
- inhibition at 10 µM [11]: 0%
- inhibition at 10 µM [12]: 0%
- inhibition at 10 µM [13]: 0%
- inhibition at 10 µM [14]: 0%
- inhibition at 10 µM [15]: 0%
- inhibition at 10 µM [16]: 0%

SMILES: Nc1ncc2c(-c3ccncc3)c[nH]c2n1 [Compound 11]
- inhibition at 10 µM [1]: 66.9%
- inhibition at 10 µM [2]: 0%
- inhibition at 10 µM [3]: 0%
- inhibition at 10 µM [4]: 0%
- inhibition at 10 µM [5]: 0%
- inhibition at 10 µM [6]: 0%
- inhibition at 10 µM [7]: 0%
- inhibition at 10 µM [8]: 97.1%
- inhibition at 10 µM [9]: 0%
- inhibition at 10 µM [10]: 82.8%
- inhibition at 10 µM [11]: 0%
- inhibition at 10 µM [12]: 0%
- inhibition at 10 µM [13]: 0%
- inhibition at 10 µM [14]: 84.9%
- inhibition at 10 µM [15]: 0%
- inhibition at 10 µM [16]: 77.6%
